Measurements as given in ChEMBL document CHEMBL1201862, “PubChem BioAssay data set” (2004).
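Tested at 5 concentrations; 48 h exposure; 96-well plates; endpoints linearly interpolated, else capped at highest concentration. The concentration for 50% growth inhibition is given as GI50.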 The source made the active and inactive calls. Rule as the data show it: active = GI50 up to about 1.1 µM and inactive = higher.

What was measured:
Assay in all cases: NCI tumour cell line growth inhibition, 48 h
[1] = system: RXF 393
[2] = system: T47D
[3] = system: UO-31
[4] = system: HL-60
[5] = system: PC-3
[6] = system: NCI-H226
[7] = system: CCRF-CEM
[8] = system: UACC-62
[9] = system: NCI-H522
[10] = system: A498
[11] = system: NCI-H23
[12] = system: M14
[13] = system: U-251
[14] = system: 786-0
[15] = system: MCF7
[16] = system: EKVX
[17] = system: Hs-578T
[18] = system: Malme-3M
[19] = system: COLO 205
[20] = system: CAKI-1
[21] = system: OVCAR-4
[22] = system: MDA-MB-231
[23] = system: HOP-62
[24] = system: SF-295
[25] = system: SK-OV-3
[26] = system: NCI-H460
[27] = system: SF-268
[28] = system: OVCAR-8
[29] = system: OVCAR-5
[30] = system: KM12
[31] = system: A549
[32] = system: SK-MEL-2
[33] = system: HCT-15
[34] = system: SK-MEL-28
[35] = system: MDA-N
[36] = system: UACC-257
[37] = system: SK-MEL-5
[38] = system: SN12C
[39] = system: SNB-19
[40] = system: BT-549
[41] = system: TK-10
[42] = system: HCT-116
[43] = system: OVCAR-3
[44] = system: DU-145
[45] = system: MDA-MB-435
[46] = system: K562
[47] = system: HCC 2998
[48] = system: SW-620
[49] = system: HT-29
[50] = system: ACHN
[51] = system: MOLT-4
[52] = system: LOX IMVI
[53] = system: RPMI-8226
[54] = system: IGROV-1
[55] = system: HOP-92
[56] = system: NCI/ADR-RES
[57] = system: SF-539
[58] = system: SR
[59] = system: SNB-75

## COc1cc(N(CCC#N)CCC#N)ccc1C(/N=N/c1cccc(C)c1)=N\NC(=O)c1ccc(C)cc1
[1]
  GI50: 73.8 µM (inactive)
[2]
  GI50: 66.2 µM (inactive)
[3]
  GI50: > 100 µM (inactive)
[4]
  GI50: 47.3 µM (inactive)
[5]
  GI50: > 100 µM (inactive)
[6]
  GI50: > 100 µM (inactive)
[7]
  GI50: 97.3 µM (inactive)
[8]
  GI50: 37.2 µM (inactive)
[9]
  GI50: 80.5 µM (inactive)
[10]
  GI50: 4.78 µM (inactive)
[11]
  GI50: > 100 µM (inactive)
[12]
  GI50: > 100 µM (inactive)
[13]
  GI50: 45.8 µM (inactive)
[14]
  GI50: > 100 µM (inactive)
[15]
  GI50: 29.1 µM (inactive)
[16]
  GI50: 87.7 µM (inactive)
[17]
  GI50: > 100 µM (inactive)
[18]
  GI50: 43.5 µM (inactive)
[19]
  GI50: 60 µM (inactive)
[20]
  GI50: > 100 µM (inactive)
[21]
  GI50: > 100 µM (inactive)
[22]
  GI50: > 100 µM (inactive)
[23]
  GI50: > 100 µM (inactive)
[24]
  GI50: > 100 µM (inactive)
[25]
  GI50: > 100 µM (inactive)
[26]
  GI50: 25.9 µM (inactive)
[27]
  GI50: 35.5 µM (inactive)
[28]
  GI50: > 100 µM (inactive)
[29]
  GI50: > 100 µM (inactive)
[30]
  GI50: > 100 µM (inactive)
[31]
  GI50: > 100 µM (inactive)
[32]
  GI50: > 100 µM (inactive)
[33]
  GI50: > 100 µM
[34]
  GI50: > 100 µM (inactive)
[35]
  GI50: > 100 µM (inactive)
[36]
  GI50: > 100 µM (inactive)
[37]
  GI50: > 100 µM (inactive)
[38]
  GI50: > 100 µM (inactive)
[39]
  GI50: > 100 µM (inactive)
[40]
  GI50: > 100 µM (inactive)
[41]
  GI50: 57.7 µM (inactive)
[42]
  GI50: > 100 µM (inactive)
[43]
  GI50: > 100 µM (inactive)
[44]
  GI50: > 100 µM (inactive)
[45]
  GI50: > 100 µM (inactive)
[46]
  GI50: > 100 µM (inactive)
[47]
  GI50: 79.3 µM (inactive)
[48]
  GI50: > 100 µM (inactive)
[49]
  GI50: > 100 µM (inactive)
[50]
  GI50: 21.8 µM (inactive)
[51]
  GI50: 7.91 µM (inactive)
[52]
  GI50: > 100 µM (inactive)
[53]
  GI50: 35.7 µM (inactive)
[54]
  GI50: > 100 µM (inactive)
[55]
  GI50: 65.9 µM (inactive)
[56]
  GI50: > 100 µM (inactive)

## N#CC1CCN2N=C(c3ccccc3)SC12c1ccccc1 (stereo not given)
[1]
  GI50: 31.3 µM (inactive)
[2]
  GI50: 24.5 µM (inactive)
[3]
  GI50: 35.1 µM (inactive)
[57]
  GI50: 78.2 µM (inactive)
[4]
  GI50: 32.9 µM (inactive)
[5]
  GI50: 35.7 µM (inactive)
[6]
  GI50: 58.1 µM (inactive)
[8]
  GI50: 4.91 µM (inactive)
[9]
  GI50: 46.2 µM (inactive)
[11]
  GI50: 32 µM (inactive)
[12]
  GI50: 45.6 µM (inactive)
[13]
  GI50: 44 µM (inactive)
[14]
  GI50: 89.1 µM (inactive)
[15]
  GI50: 31.1 µM (inactive)
[16]
  GI50: 18.8 µM (inactive)
[17]
  GI50: 88.3 µM (inactive)
[18]
  GI50: > 100 µM (inactive)
[19]
  GI50: 40.7 µM (inactive)
[20]
  GI50: 35.4 µM (inactive)
[21]
  GI50: 76.7 µM (inactive)
[22]
  GI50: > 100 µM (inactive)
[23]
  GI50: > 100 µM (inactive)
[24]
  GI50: 60.5 µM (inactive)
[25]
  GI50: > 100 µM (inactive)
[26]
  GI50: 26.1 µM (inactive)
[27]
  GI50: > 100 µM (inactive)
[28]
  GI50: 76.6 µM (inactive)
[29]
  GI50: > 100 µM (inactive)
[30]
  GI50: 48.6 µM (inactive)
[31]
  GI50: 23.7 µM (inactive)
[32]
  GI50: 53.3 µM (inactive)
[33]
  GI50: 38.5 µM
[34]
  GI50: > 100 µM (inactive)
[35]
  GI50: 54.7 µM (inactive)
[36]
  GI50: 39.3 µM (inactive)
[37]
  GI50: 34.4 µM (inactive)
[38]
  GI50: 40.4 µM (inactive)
[58]
  GI50: 37.1 µM (inactive)
[39]
  GI50: > 100 µM (inactive)
[40]
  GI50: 43 µM (inactive)
[41]
  GI50: > 100 µM (inactive)
[42]
  GI50: 35.2 µM (inactive)
[45]
  GI50: 61.4 µM (inactive)
[46]
  GI50: 28.6 µM (inactive)
[47]
  GI50: 26.7 µM (inactive)
[48]
  GI50: 39.4 µM (inactive)
[49]
  GI50: 32.1 µM (inactive)
[50]
  GI50: 21.1 µM (inactive)
[51]
  GI50: 17.5 µM (inactive)
[52]
  GI50: 51.9 µM (inactive)
[53]
  GI50: 26.3 µM (inactive)
[59]
  GI50: > 100 µM (inactive)
[54]
  GI50: > 100 µM (inactive)
[55]
  GI50: 58.1 µM (inactive)
[56]
  GI50: 32.9 µM (inactive)

## O=[N+]([O-])c1ccc(/N=N/c2c(O)ccc3cc(S(=O)(=O)O)cc(S(=O)(=O)O)c23)cc1
[1]
  GI50: > 100 µM (inactive)
[2]
  GI50: > 100 µM (inactive)
[3]
  GI50: > 100 µM (inactive)
[5]
  GI50: > 100 µM (inactive)
[6]
  GI50: > 100 µM (inactive)
[7]
  GI50: > 100 µM (inactive)
[8]
  GI50: > 100 µM (inactive)
[9]
  GI50: > 100 µM (inactive)
[10]
  GI50: > 100 µM (inactive)
[11]
  GI50: > 100 µM (inactive)
[12]
  GI50: > 100 µM (inactive)
[13]
  GI50: > 100 µM (inactive)
[14]
  GI50: > 100 µM (inactive)
[16]
  GI50: > 100 µM (inactive)
[17]
  GI50: > 100 µM (inactive)
[18]
  GI50: > 100 µM (inactive)
[19]
  GI50: > 100 µM (inactive)
[20]
  GI50: > 100 µM (inactive)
[21]
  GI50: > 100 µM (inactive)
[22]
  GI50: > 100 µM (inactive)
[23]
  GI50: > 100 µM (inactive)
[24]
  GI50: > 100 µM (inactive)
[25]
  GI50: > 100 µM (inactive)
[27]
  GI50: > 100 µM (inactive)
[28]
  GI50: > 100 µM (inactive)
[29]
  GI50: > 100 µM (inactive)
[30]
  GI50: > 100 µM (inactive)
[31]
  GI50: > 100 µM (inactive)
[32]
  GI50: > 100 µM (inactive)
[33]
  GI50: > 100 µM
[34]
  GI50: > 100 µM (inactive)
[35]
  GI50: > 100 µM (inactive)
[36]
  GI50: > 100 µM (inactive)
[37]
  GI50: > 100 µM (inactive)
[38]
  GI50: > 100 µM (inactive)
[58]
  GI50: > 100 µM (inactive)
[39]
  GI50: > 100 µM (inactive)
[40]
  GI50: > 100 µM (inactive)
[41]
  GI50: > 100 µM (inactive)
[42]
  GI50: > 100 µM (inactive)
[43]
  GI50: > 100 µM (inactive)
[44]
  GI50: > 100 µM (inactive)
[45]
  GI50: > 100 µM (inactive)
[46]
  GI50: > 100 µM (inactive)
[48]
  GI50: > 100 µM (inactive)
[49]
  GI50: > 100 µM (inactive)
[50]
  GI50: > 100 µM (inactive)
[51]
  GI50: > 100 µM (inactive)
[52]
  GI50: > 100 µM (inactive)
[53]
  GI50: > 100 µM (inactive)
[59]
  GI50: > 100 µM (inactive)
[54]
  GI50: > 100 µM (inactive)
[55]
  GI50: > 100 µM (inactive)
[56]
  GI50: > 100 µM (inactive)
